Assay results as given in BindingDB's records for doi:10.1016/j.bmc.2014.11.013 (University Medical Center Groningen, 2014).

Assay: Inhibition of human recombinant ADAM17 using Mca-PLAQAV-Dpa-RSSSR-NH2

Compound | IC50
CC(C)C[C@H](CC(=O)NO)C(=O)N[C@@H](Cc1ccccc1)C(=O)N[C@@H](CCCCNC(=O)c1ccc(F)cc1)C(N)=O | 25 nM
CC(C)C[C@H](CC(=O)NO)C(=O)N[C@@H](Cc1ccccc1)C(=O)N[C@@H](CCCCN)C(N)=O | 5.7 nM
